{
  "source": "patent US4511509A",
  "about": "“3-Alkylidine azetidine compound and their production” (Kowa Co. Ltd., priority 1982, dated 1985)",
  "assay_in_all_cases": "antibacterial activity, MIC (Table)",
  "format_in_all_cases": "cell-based",
  "key": {"[1]": {"test_system": "Streptococcus aureus 209p JC-1"}, "[2]": {"test_system": "Escherichia coli 59 (PC ase II)"}, "Proteus inconstans 113": {"test_system": "Proteus inconstans 113", "conditions": "Providencia alcalifaciens"}, "[3]": {"test_system": "Escherichia coli NIHJ JC-2", "conditions": "NIHJJC2"}, "Salmonella typhi H - 901": {"test_system": "Salmonella typhi H - 901", "conditions": "Salmonella enterica"}, "[4]": {"test_system": "Pseudomonas putida IID 5121", "conditions": "IID5121"}, "[5]": {"test_system": "Bacillus subtilis ATCC 6633", "conditions": "ATCC6633"}, "[6]": {"test_system": "Streptococcus aureus Smith"}, "[7]": {"test_system": "Escherichia coli RECl (PC ase I)"}, "Serratia marcescens NHL": {"test_system": "Serratia marcescens NHL"}, "[8]": {"test_system": "Pseudomonas aeruginosa NCTC 10490", "conditions": "NCTC10490"}, "Proteus vulgaris IID874": {"test_system": "Proteus vulgaris IID874"}, "[9]": {"test_system": "Klebsiella pneumoniae PCO 602", "conditions": "PCO602"}, "[10]": {"test_system": "Escherichia coli 68 (PC ase IV)"}, "Proteus inconstans 93": {"test_system": "Proteus inconstans 93", "conditions": "Providencia alcalifaciens"}},
  "data": [
    {"smiles": "C/C(CO)=C1\\C(=O)N2C(C(=O)O)=C(Sc3ncccn3)C[C@H]12", "note": "[(5R)6(E)-(1-methyl-2-hydroxyethylidene)-3-(2-pyrimidinylthio)-1-azabicyclo[3.2.0]hept-2-en-7-one-2-carboxylic acid]", "values": [
      {"measurement": "MIC", "setting": "[1]", "result": 0.05, "unit": "µg/mL"},
      {"measurement": "MIC", "setting": "[2]", "result": 0.2, "unit": "µg/mL"},
      {"measurement": "MIC", "setting": "Proteus inconstans 113", "result": 0.78, "unit": "µg/mL"},
      {"measurement": "MIC", "setting": "[3]", "result": 0.39, "unit": "µg/mL"},
      {"measurement": "MIC", "setting": "Salmonella typhi H - 901", "result": 0.2, "unit": "µg/mL"},
      {"measurement": "MIC", "setting": "[4]", "result": 100, "unit": "µg/mL"},
      {"measurement": "MIC", "setting": "[5]", "result": 0.78, "unit": "µg/mL"},
      {"measurement": "MIC", "setting": "[6]", "result": 0.2, "unit": "µg/mL"},
      {"measurement": "MIC", "setting": "[7]", "result": 0.39, "unit": "µg/mL"},
      {"measurement": "MIC", "setting": "Serratia marcescens NHL", "result": 0.78, "unit": "µg/mL"},
      {"measurement": "MIC", "setting": "[8]", "result": 1.56, "unit": "µg/mL"},
      {"measurement": "MIC", "setting": "Proteus vulgaris IID874", "result": 0.05, "unit": "µg/mL"},
      {"measurement": "MIC", "setting": "[9]", "result": 0.39, "unit": "µg/mL"},
      {"measurement": "MIC", "setting": "[10]", "result": 0.2, "unit": "µg/mL"},
      {"measurement": "MIC", "setting": "Proteus inconstans 93", "result": 0.2, "unit": "µg/mL"}
    ]}
  ]
}
